The target of assay [1] is Serine/threonine-protein kinase pim-1 (Homo sapiens, UniProt P11309). The experiment in a line: (§1) PIM Enzyme Assay: The assay for the determination of Pim activity is based on the formation of phosphorylated biotinylated-BAD peptide at the Serine 112 residue (S112) and employs HTRF (homogeneous time resolved fluorescence) technology to detect the product in a 96-well plate format. The phosphorylation of biotinylated-BAD (S112) peptide by full length recombinant Pim-1, Pim-2, or Pim-3 protein was detected with streptavidin:Allophycocyanin (APC) conjugate and a europium (Eu) labeled antibody directed against phosphorylated-BAD (S112). Excitation of Eu by a high energy laser light (337 nm) leads to a transfer of energy to the APC molecule, and results in an emission at 665 nm. The fluorescence is directly proportional to the amount of phosphorylated BAD peptide present in the reaction.Compounds were prepared in DMSO by conducting 3-fold serial dilutions to give a 10-point dosing curve having a high dose of 1 uM. A reference compound was included on each assay plate in order to validate that plate.

In assay [2] the target is Serine/threonine-protein kinase pim-2 (Homo sapiens, UniProt Q9P1W9). The description is as §1.

pIC50: −log10 of the molar value.

For `N[C@H]1CCC[C@@H](c2ccncc2Nc2ncc3ccc(-c4c(F)cccc4F)nn23)C1` (mixture of isomers), the pIC50 in assay [1] was 8.40; in assay [2], 7.57.

For the origin of these results see ChEMBL document CHEMBL3886376, “Bicyclic pyridazine compounds as Pim inhibitors” (2015).
